Experimental findings from patent EP0023335A1, “N-Hydroxyalkylimidazoline derivatives, a method for their preparation and their application” (Henkel Kommanditgesellschaft auf Aktien, priority 1979, dated 1981) are described below.

Common to all, as to format: cell-based
The test system of one assay is Escherichia coli. Briefly: Microbicidal action in suspension test. Particulars: inoculum 3,7 x 10^8 /ml diluted 1:100, room temperature, in H2O. How it is done:
(§1) 55,0 g (0,26 Mol) des Imidazolins Nr. 6 der Tabelle 1 wurden in 30 ml Isopropanol gelöst und mit 32,6 g (0,26 Mol) Benzylchlorid in 3 Stunden bei 80'- 85 °C quaterniert. Danach wurde das Isopropanol abdestilliert und das Produkt mit Wasser auf 30 % Aktivsubstanz eingestellt. Die Ergebnisse der Prüfung der mikrobiziden Wirkung einiger Imidazoliniumsalze der Tabelle 2 finden sich in der nachfolgenden Tabelle 3: […]

For a further assay, the system named is Candida albicans. As to the kind of experiment: Microbicidal action in suspension test. Particulars: inoculum 1,9 x 10^8 /ml diluted 1:100, room temperature, in H2O. How it is done:
as §1

The test system of the next assay is Staphylococcus aureus. As to the kind of experiment: Microbicidal action in suspension test. To be noted: inoculum 3,0 x 10^8 /ml diluted 1:100, room temperature, in H2O. How it is done: as §1
A further assay has as its system Pseudomonas aeruginosa. As to the kind of experiment: Microbicidal action in suspension test. To be noted: inoculum 1,6 x 10^8 /ml diluted 1:100, room temperature, in H2O. How it is done:
as §1

In assay [1] the test system is Staphylococcus aureus SG 511. Briefly: Inhibition series in liquid nutrient medium, tube test CII1 (DGHM guidelines). To be noted: SG511, read-out: antimikrobielle Wirkung (Hemmreihen). From the text: (§2) Die antimikrobielle Wirkung der vorstehenden Imidazolin-Acetate geht aus folgender Tabelle hervor:
(§3) Die Prüfung erfolgte in Hemmreihen in flüssigem Nährsubstrat gegenüber den genannten Keimen im Röhrchentest CII1 gemäß Richtlinien der DGHM für chemische Desinfektionsmittel.

The test system of assay [2] is Candida albicans ATCC 10 231. The assay is described as above. To be noted: ATCC10, read-out: antimikrobielle Wirkung (Hemmreihen).
Excerpt: as §2, §3

In brackets after ≈: the same amount, converted by molar mass.

As for `CCCCCCCCCCC(O)CN1CC[N+](C)=C1CCCCCCC` (stereo not shown) [Imidazoliniumsalz 3], the “Abtötungszeit in Minuten” value in the assay on Escherichia coli (10 ppm active) is given as 5 Minuten; with Escherichia coli (50 ppm active) it was ≤ 2,5 Minuten; with Candida albicans (10 ppm active) it was 20 Minuten; with Candida albicans (50 ppm active), 5 Minuten; in the assay with Staphylococcus aureus (10 ppm active), ≤ 2,5 Minuten; in the assay with Staphylococcus aureus (50 ppm active), ≤ 2,5 Minuten. Besides, the “Abtötungszeit in Minuten” value with Pseudomonas aeruginosa (10 ppm active) came to 60 Minuten; in the assay with Pseudomonas aeruginosa (50 ppm active), 10 Minuten.

For the molecule `CCCCCCCCCCC(O)CN1CCN=C1CCCCCCCCC` (stereo not shown) [Imidazolin-Nr.4-acetat], the values for the MIC in assay [1] and in assay [2] were below 10 µg/mL and 50 µg/mL (≈ 131 µM), respectively.

Consider `CCCCCCCCCCC(O)CN1CC[N+](C)=C1CCCCCCCCC` (stereo not shown) [Imidazoliniumsalz 4], for which the “Abtötungszeit in Minuten” value was 60 Minuten in the assay on Escherichia coli (10 ppm active); 10 Minuten with Escherichia coli (50 ppm active); 20 Minuten in the assay on Candida albicans (10 ppm active); 20 Minuten in the assay on Candida albicans (50 ppm active); 5 Minuten with Staphylococcus aureus (10 ppm active); 5 Minuten in the assay on Staphylococcus aureus (50 ppm active). Further, the “Abtötungszeit in Minuten” value in the assay with Pseudomonas aeruginosa (10 ppm active) and in the assay on Pseudomonas aeruginosa (50 ppm active) was 10 Minuten each time.

For `CCCCCCCCCC1=[N+](C)CCN1CC(O)CCCCCCCC` (stereo not shown) [Imidazoliniumsalz 1], the “Abtötungszeit in Minuten” value in the assay on Escherichia coli (10 ppm active) is “x (x = > 120 Minuten)”; in the assay on Escherichia coli (50 ppm active), 20 Minuten; in the assay with Escherichia coli (100 ppm active), ≤ 2,5 Minuten; in the assay on Candida albicans (50 ppm active) it was 40 Minuten; in the assay with Candida albicans (100 ppm active), 10 Minuten; with Staphylococcus aureus (10 ppm active) it was 60 Minuten. Moreover, the “Abtötungszeit in Minuten” value in the assay on Staphylococcus aureus (50 ppm active) is reported as ≤ 2,5 Minuten; in the assay on Staphylococcus aureus (100 ppm active) it was ≤ 2,5 Minuten; with Pseudomonas aeruginosa (50 ppm active), 20 Minuten; in the assay on Pseudomonas aeruginosa (100 ppm active), 10 Minuten.
